Measured values reported in patent publication US20210284668A1, “GOLD (I)-PHOSPHINE 1,2,3-TRIAZOLE DERIVATIVES WITH ANTIBIOTIC PROPERTIES” (Centre National de la Recherche Scientifique, priority 2018, published 2021).
Values joined by “and” are separate entries in the source; they are usually repeats but may differ in a detail not shown here. Equal values may be shown once.

Columns and labels:
S. aureus ATCC25923 = experiment: MIC by microdilution, S. aureus ATCC25923; format: cell-based, Staphylococcus aureus; details: S. aureus ATCC25923 (MecA negative, wild-type), Mueller-Hinton broth, in duplicate
Description: (§1) The antibacterial profile of each derivative was evaluated by the standard microdilution method for susceptibility testing on 16 different strains, following the guidelines of CLSI. The selected panel included: • S. aureus ATCC25923 (MecA negative, wild-type) • S. aureus ATCC29213 (MecA negative, wild-type) • S. aureus ATCC700699 (MecA positive, glycopeptide resistant) • S. aureus ST20131365 (MecA positive, glycopeptide resistant) • S. epidermidis ATCC14990 (MecA negative, wild-type) • S. epidermidis ATCC35984 (MecA positive) • S. epidermidis ST20140436 (MecA positive, glycopeptide resistant) • S. epidermidis ST20150446 (MecA positive, glycopeptide resistant) • E. faecalis JH2-2 (wild-type) • E. faecalis UCN41 (VanA positive, glycopeptide resistant) • E. faecalis V583 (VanB positive, glycopeptide resistant) • E. faecium ATCC19434T (wild-type) • E. faecium BM4147 (VanA positive, glycopeptide resistant) • E. faecium AUS0004 (VanB positive, glycopeptide resistant) • E. coli ATCC25922 (wild-type) • Clostridium difficile ATCC9689 (wild-type)
(§2) Both series issued from the SAR study were evaluated for their antibacterial activity on a panel of characterized strains obtained from the French National Reference Centers for Staphylococci (Lyon, Pr. Fréderique Laurent) and for Enterococci (Caen, Pr. Vincent Cattoir), respectively. As shown in the following tables, both series contain very active compounds on multi-resistant Gram-positive bacteria (Minimal Inhibitory Concentrations lower than comparator antibiotic ampicillin). Furthermore, a very important antibacterial effect has been shown too on a strain of Clostridium difficile, a Gram-positive, spore-forming, bacillus responsible for post-antibiotic diarrhoae.
(§3) The antibacterial activity of test compounds was evaluated on a selected panel of Gram-positive (4 Staphylococcus aureus, 4 Staphylococcus epidermidis, 3 Enterococcus faecalis, 3 Enterococcus faecium, 1 Clostridium difficile) and Gram-negative strains (1 Escherichia coli, 1 Klebsiella pneumoniae, 1 Pseudomonas aeruginosa, 1 Acinetacter baumannii) with known features of antibiotic resistance (from wild-type susceptibility to multi-drug resistance). The Minimal Inhibitory Concentration (MIC) of test compounds was determined in duplicate by the microdilution method in 96-well microplates with a final volume of 100 μL per well and Mueller-Hinton broth as the growth medium, as recommended by the CLSI (Clinical and Laboratory Standards Institute, document Mo7-A10, USA).

S. aureus ATCC700699 = experiment: MIC by microdilution, S. aureus ATCC700699; format: cell-based, Staphylococcus aureus; design: unit not given here; details: S. aureus ATCC700699 (MecA positive, glycopeptide resistant), in duplicate
Description: as §1, §2, §3

S. aureus ST20131365 = experiment: MIC by microdilution, S. aureus ST20131365; format: cell-based, Staphylococcus aureus; details: S. aureus ST20131365 (MecA positive, glycopeptide resistant), in duplicate
Description: as §1, §2, §3

S. epidermidis ATCC14990 = experiment: MIC by microdilution, S. epidermidis ATCC14990; format: cell-based, Staphylococcus epidermidis; details: S. epidermidis ATCC14990 (MecA negative, wild-type), in duplicate
Description: as §1, §2, §3

S. epidermidis ATCC35984 = experiment: MIC by microdilution, S. epidermidis ATCC35984; format: cell-based, Staphylococcus epidermidis; details: S. epidermidis ATCC35984 (MecA positive), in duplicate
Description: as §1, §2, §3

[1] = test system: S. epidermidis ST20140436; experiment: MIC by microdilution, S. epidermidis ST20140436; format: cell-based, Staphylococcus epidermidis; details: S. epidermidis ST20140436 (MecA positive, glycopeptide resistant), in duplicate
Description: as §1, §2, §3

[2] = test system: S. epidermidis ST20150446; experiment: MIC by microdilution, S. epidermidis ST20150446; format: cell-based, Staphylococcus epidermidis; details: S. epidermidis ST20150446 (MecA positive, glycopeptide resistant), in duplicate
Description: as §1, §2, §3

E. faecalis JH2-2 = experiment: MIC by microdilution, E. faecalis JH2-2; format: cell-based, Enterococcus faecalis; design: unit not given here; details: E. faecalis JH2-2 (wild-type), in duplicate
Description: as §1, §2, §3

E. faecalis UCN41 = experiment: MIC by microdilution, E. faecalis UCN41; format: cell-based, Enterococcus faecalis; design: unit not given here; details: E. faecalis UCN41 (VanA positive, glycopeptide resistant), in duplicate
Description: as §1, §2, §3

E. faecalis V583 = experiment: MIC by microdilution, E. faecalis V583; format: cell-based, Enterococcus faecalis; details: E. faecalis V583 (VanB positive, glycopeptide resistant), in duplicate
Description: as §1, §2, §3

E. faecium ATCC19434T = experiment: MIC by microdilution, E. faecium ATCC19434T; format: cell-based, Enterococcus faecium; design: unit not given here; details: E. faecium ATCC19434T (wild-type), in duplicate
Description: as §1, §2, §3

E. faecium BM4147 = experiment: MIC by microdilution, E. faecium BM4147; format: cell-based, Enterococcus faecium; design: unit not given here; details: E. faecium BM4147 (VanA positive, glycopeptide resistant), in duplicate
Description: as §1, §2, §3

E. faecium AUS0004 = experiment: MIC by microdilution, E. faecium AUS0004; format: cell-based, Enterococcus faecium; details: E. faecium AUS0004 (VanB positive, glycopeptide resistant), in duplicate
Description: as §1, §2, §3

[3] = test system: Clostridium difficile ATCC700057; experiment: MIC by microdilution, Clostridium difficile; format: cell-based; details: strain ATCC70057 [sic] (Tables 1-2) / ATCC700057 (Tables 3-10), in duplicate
[4] = test system: panel of Gram-positive and Gram-negative strains; experiment: Antibacterial profile on the selected panel of strains; format: cell-based; details: summary of Tables 1-12
Description: as §1, §2, §3

E. coli ATCC25922 = experiment: MIC by microdilution, E. coli ATCC25922; format: cell-based, Escherichia coli; details: E. coli ATCC25922 (wild-type), in duplicate
Description: as §1, §2, §3

Row | SMILES | Minimal Inhibitory Concentration (MIC) (S. aureus ATCC25923) | Minimal Inhibitory Concentration (MIC) (S. aureus ATCC700699) | Minimal Inhibitory Concentration (MIC) (S. aureus ST20131365) | Minimal Inhibitory Concentration (MIC) (S. epidermidis ATCC14990) | Minimal Inhibitory Concentration (MIC) (S. epidermidis ATCC35984) | Minimal Inhibitory Concentration (MIC) [1] | Minimal Inhibitory Concentration (MIC) [2] | Minimal Inhibitory Concentration (MIC) (E. faecalis JH2-2) | Minimal Inhibitory Concentration (MIC) (E. faecalis UCN41) | Minimal Inhibitory Concentration (MIC) (E. faecalis V583) | Minimal Inhibitory Concentration (MIC) (E. faecium ATCC19434T) | Minimal Inhibitory Concentration (MIC) (E. faecium BM4147) | Minimal Inhibitory Concentration (MIC) (E. faecium AUS0004) | Minimal Inhibitory Concentration (MIC) [3] | antimicrobial / antibacterial activity (in words) [4] | Minimal Inhibitory Concentration (MIC) (E. coli ATCC25922)
1 | CC[P+](CC)(CC)[Au-][c]1nn[nH]c1CCC(=O)N[C@H](CO)C(=O)O [TMB38] | ≤0.06 | 0.125 | ≤0.06 | ≤0.06 | ≤0.06 | ≤0.06 | ≤0.06 | 0.125 | 0.125 | 0.125 | ≤0.06 | 0.125 | 0.125 | 0.125 and 0.25 | have antimicrobial activity | –
2 | CC[P+](CC)(CC)[Au-][c]1nn[nH]c1CN1C(=O)NC2CSC(CCCCC(=O)O)C21 (centres unmarked) [TMB48] | 0.25 | 0.5 | – | 0.125 | 0.125 | – | – | 1 | 1 | – | 1 | 2 | – | – | have antimicrobial activity | –
3 | CC(=O)O.CC[P+](CC)(CC)[Au-][c]1nn[nH]c1CCN [TMB50] | 0.125 | 0.125 | – | ≤0.06 | ≤0.06 | – | – | 0.25 | 0.5 | – | 0.25 | 0.25 | – | – | have antimicrobial activity | –
4 | CC[P+](CC)(CC)[Au-][c]1nn[nH]c1CNC(=O)NC(C(=O)NC1C(=O)N2C1SC(C)(C)C2C(=O)O)c1ccccc1 (centres unmarked) [TMB24] | 0.125 | 0.125 and 0.25 | 0.25 | ≤0.06 | 0.125 | – | – | 0.25 and 0.5 | 0.25 | 0.25 and 0.5 | 0.5 | 0.5 | 0.5 | ≤0.06 | have antimicrobial activity | >8
5 | CC[P+](CC)(CC)[Au-][c]1nn[nH]c1CN1CCOCC1 [TMB32] | – | 0.125 and 0.25 | 0.125 | ≤0.06 | ≤0.06 | – | 0.125 and 0.25 | 0.125 | 0.25 | 0.25 | 0.25 | 0.25 | 0.25 | ≤0.06 | have antimicrobial activity | >8
6 | C[C@@H]1COc2c(N3CCN(C)CC3)c(F)cc3c(=O)c(C(=O)O)cn1c23 [TMB47, Ofloxacin, reference compound] | 0.25 | >8 | – | 0.25 | 0.125 | – | – | 2 | 2 | – | 4 | 1 | – | – | have antimicrobial activity | –
7 | CC[P+](CC)(CC)[Au-][c]1nn[nH]c1CNC(=O)NC(C(=O)O)c1ccccc1 (centres unmarked) [TMB52] | – | 0.125 | – | ≤0.06 | ≤0.06 | – | – | 0.25 | 0.25 | – | 0.25 | 0.25 | – | – | have antimicrobial activity | –
8 | CC(=O)OC[C@H]1O[C@@H]([S-])[C@H](OC(C)=O)[C@@H](OC(C)=O)[C@@H]1OC(C)=O.CCP(CC)CC.[Au+] [Auranofin, reference compound] | – | ≤0.06 | – | ≤0.06 | ≤0.06 | – | – | – | – | – | ≤0.06 | – | – | – | – | –
9 | C#CCOC(=O)N[C@@H](C(=O)N[C@@H]1C(=O)N2[C@@H]1SC(C)(C)[C@@H]2C(=O)O)c1ccccc1 [TMB2] | – | – | – | – | – | – | – | – | – | – | – | – | – | – | do not show an antibacterial activity | –
10 | CC[P+](CC)(CC)[Au-][c]1nn[nH]c1CNc1c(F)cc2c(=O)c(C(=O)O)cn3c2c1OCC3C (centres unmarked) [TMB49] | 0.125 | 0.25 | – | ≤0.06 | ≤0.06 | – | – | 1 | 1 | – | 0.5 and 1 | 1 | – | – | have antimicrobial activity | –
11 | C#CCNc1c(F)cc2c(=O)c(C(=O)O)cn3c2c1OCC3C (centres unmarked) [TMB51] | 2 | >8 | – | 4 | 2 | – | – | >8 | >8 | – | >8 | >8 | – | – | do not show an antibacterial activity | –
